Molecules are shown by their SMILES. Entries after “also recorded” stand apart in the source; their conditions may differ.

One data set concerns HEK cells. The data set is described as follows: Trypan blue cell viability / proliferation. Type of data set: cell-based. The conditions noted are these: triple mutant TgUPRT + 5VU 200 μM, 5, 16, 24h, versus untreated cells, FIG. 11. The procedure:
Equal amount HEK cells (2×10^5) were seeded in a 6-well plate with 2 mL media. Twenty-four hour […], HEK cells were transfected with 1 μg empty plasmid (No GFP nor TgUPRT), double (2×MT) or triple (3×MT) TgUPRT mutants. 5VU was added to cells at 200 μM final concentration for 5, 16 and 24h treatment so that by the time cells were assayed with Trypan blue, they underwent 48h post transfection. DMSO (carrier) treatment (negative control) was done for 24h. Cells were stained with 0.04% Trypan blue for 5 minutes and subjected to cell counting using Countess II FL (Invitrogen, USA). Per condition, counting was done with n=2× biological and 3× technical replicates.

In data set [1] the target is T1, uracil monophosphate synthetase (UMPS) overexpressed in HEK cells (Homo sapiens, UniProt P11172).
T1 construct: expressed in transfected cells; host or cells: HEK cells
T1 sequence (P11172 1-480): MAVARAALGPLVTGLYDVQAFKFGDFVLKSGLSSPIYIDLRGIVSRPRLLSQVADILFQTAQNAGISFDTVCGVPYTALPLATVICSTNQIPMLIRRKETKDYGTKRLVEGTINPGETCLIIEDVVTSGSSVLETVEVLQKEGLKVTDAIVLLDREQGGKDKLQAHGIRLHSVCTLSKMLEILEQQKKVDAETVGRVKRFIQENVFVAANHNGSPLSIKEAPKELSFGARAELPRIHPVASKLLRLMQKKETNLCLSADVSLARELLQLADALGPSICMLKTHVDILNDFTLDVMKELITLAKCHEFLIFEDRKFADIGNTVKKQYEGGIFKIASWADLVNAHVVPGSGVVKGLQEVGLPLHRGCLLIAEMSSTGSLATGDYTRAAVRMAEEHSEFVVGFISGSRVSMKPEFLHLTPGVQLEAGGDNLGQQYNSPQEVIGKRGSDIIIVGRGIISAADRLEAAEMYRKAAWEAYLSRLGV
The data set is described as follows: RNA incorporation with overexpression of UMPS, dot blot. Conditions: 1 mM, 24 hours, FIG. 12. In kind it is cell-based. The procedure: Analogs were incubated for 24 hours at 1 mM concentration in HEK cells. RNA was extracted and biotinylated using MTSEA-Biotin, followed by dot-blot analysis. Strep-HRP=Streptavidin conjugated Horseradish peroxidase. MeBI=methylene blue staining serving as loading control.

Another data set concerns mutants TgUPRT. The data set is described as follows: Phosphoribosyltransferase activity with recombinant TgUPRT mutants. Type of data set: biochemical, Toxoplasma gondii. Conditions: five recombinant TgUPRT mutants, FIG. 9A. Here is the method:
Enzyme activity assay: The standard activity assay was performed by incubating 10 μL of free extract or 0.5 μg of pure His-tag enzyme with 1 mM Phosphoribosyl pyrophosphate (PRPP), 1 mM uracil, 5 mM MgCl2 in 50 mM PBS buffer pH 7.4 in a final volume of 80 μL. The reaction mixture was incubated at 37° C. for 2-5 min (300 rpm). Enzyme was inactivated by adding 80 μL of cold methanol in ice-bath and heating for 5 min at 100° C. After centrifugation at 9000×g for 5 min, samples were half-diluted with water and the NMP production was analysed by HPLC to quantitatively measure the reaction products as described below in the analytical methods. All determinations were carried out in triplicate assuming Michaelis-Menten conditions, and the maximum error was below 5%. In such conditions, one international activity unit (IU) was defined as the amount of enzyme producing 1 μmol/min of UMP under the assay conditions.
Substrate specificity studies Enzymatic synthesis of the different pyrimidine nucleoside monophosphate (NMP) derivatives was carried out by incubating 0.5 μg of pure His-tag enzyme with 1 mM PRPP, 1 mM pyrimidine base and 5 mM MgCl2 in 50 mM PBS buffer pH 7.4 (1.6-3.2% v/v DSMO). The experiments were performed according to the standard assay. Subsequently, the reaction mixture was processed as described above and the NMP production was analyzed by HPLC.
Analytical methods: The production of NMPs was quantitatively measured with an ACE EXCEL 5 μm CN-ES 250×4.6 mm equilibrated with 100% trimethyl ammonium acetate at a flow rate of 0.8 mL/min. Retention times for the reference bases and NMPs (hereafter abbreviated according to the recommendations of the IUPAC-IUB Commission on Biochemical Nomenclature) were as follows: uracil (Ura), 4.7 min; 5-azido uracil (5-AUra). […]
Following these exciting observations, a more quantitative approach to examined for differences between enzyme mutants and their enzyme kinetics with the analogs. […] Each purified enzyme was incubated with the different substrates and phosphoribosyltransferase activity was measured (FIG. 9A).

On to `C=Cc1c[nH]c(=O)[nH]c1=O` [compound 2, 5-Vinylpyrimidine-2,4(1H,3H)-dione], for which the “cell viability, Trypan blue” value in the data set with HEK cells is recorded as “non-significant differences to untreated cells”. Besides, the “incorporation into cellular RNA with UMPS overexpression” value in data set [1] is “did not result in 2 incorporation into RNA and not”. Further, the “reactivity with the mutants (phosphoribosyltransferase activity)” value in the data set on mutants TgUPRT is “increased dramatically”.

Take `C#Cc1c[nH]c(=O)[nH]c1=O` [compound 1, 5-ethynylpyrimidine-2,4(1H,3H)-dione]: the “incorporation into cellular RNA with UMPS overexpression” value in data set [1] is on record as “higher amount; also recorded: incorporation”. For the same molecule, the “reactivity with the mutants (phosphoribosyltransferase activity)” value with mutants TgUPRT worked out at 10 IU/mg.

The values are drawn from patent US20240117431A1, “STEM-CELL BASED BIOMARKER DISCOVERY” (THE REGENTS OF THE UNIVERSITY OF CALIFORNIA, priority 2020, published 2024).
